Article PMC9104802 (Cells, 2022)
pEC50: −log10 of the molar value.

Columns and labels:
[1] = test system: Telo24 (human telomeric oligonucleotide, telomeric G-quadruplex) (DNA, G4) TTAGGGTTAGGGTTAGGGTTAGGG; assay: microscale thermophoresis (MST); details: K+ 100 mM KCl (plus potassium phosphate); 10 mM K2HPO4/KH2PO4 pH 7.0; 30 min; 1 μM DNA; SC 0.15625-320 μM; apparent
[2] = molecular target: T1, hTERT (telomerase reverse transcriptase) (Homo sapiens, UniProt O14746); assay: fluorescence polarization with His-hTRBD, BSA negative control; supported by TRAP inhibition of reconstituted GST-opTERT/hTERC and immunoprecipitated FLAG-hTERT telomerase (IC50 […]); type: binding
T1 construct: gene TERT
T1 sequence (O14746 325-550 limits assumed): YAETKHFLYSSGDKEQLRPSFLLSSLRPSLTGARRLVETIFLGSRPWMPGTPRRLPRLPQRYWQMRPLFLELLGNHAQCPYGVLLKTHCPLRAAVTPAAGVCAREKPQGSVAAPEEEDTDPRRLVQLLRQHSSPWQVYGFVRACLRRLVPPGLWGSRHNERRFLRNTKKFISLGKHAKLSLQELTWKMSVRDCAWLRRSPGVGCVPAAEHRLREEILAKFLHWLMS

Compound C[n+]1cc2c3c(ccc2c2ccc4cc5c(cc4c21)OCO5)OCO3 [SC, Sanguinarine chloride] has an EC50 [1] of 120 µM and a pEC50 [2] of 4.60.
